{"source": "paper PMC6169318", "about": "(Organic & biomolecular chemistry, 2017)", "key": {"Sco GlgEI-V279S [1]": {"biological_target": "T1, Sco GlgEI-V279S (Streptomyces coelicolor, UniProt Q9L1K2, V279S)", "T1 sequence (Q9L1K2 whole entry V279S)": "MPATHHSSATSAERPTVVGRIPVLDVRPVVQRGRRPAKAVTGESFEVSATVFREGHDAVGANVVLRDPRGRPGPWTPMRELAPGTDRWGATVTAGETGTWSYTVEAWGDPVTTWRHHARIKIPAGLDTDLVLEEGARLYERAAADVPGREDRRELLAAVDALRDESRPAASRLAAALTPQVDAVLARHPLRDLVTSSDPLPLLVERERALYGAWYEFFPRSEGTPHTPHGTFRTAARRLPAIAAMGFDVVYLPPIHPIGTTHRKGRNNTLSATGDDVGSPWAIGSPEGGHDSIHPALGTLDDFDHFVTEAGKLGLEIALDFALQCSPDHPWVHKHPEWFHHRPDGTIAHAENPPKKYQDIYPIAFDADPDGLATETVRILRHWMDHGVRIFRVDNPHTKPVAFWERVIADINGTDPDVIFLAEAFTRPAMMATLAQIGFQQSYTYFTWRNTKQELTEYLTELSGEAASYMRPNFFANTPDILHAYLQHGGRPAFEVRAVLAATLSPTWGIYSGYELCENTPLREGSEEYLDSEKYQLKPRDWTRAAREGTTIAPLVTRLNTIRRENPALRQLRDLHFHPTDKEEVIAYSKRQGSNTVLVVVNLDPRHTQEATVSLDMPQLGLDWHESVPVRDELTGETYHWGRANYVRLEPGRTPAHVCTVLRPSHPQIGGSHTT", "conditions": "ratio of Ki values"}, "Sco GlgEI-V279S [2]": {"biological_target": "T1, Sco GlgEI-V279S", "conditions": "earlier work; cited from earlier work"}}}
{"smiles": "O=P(O)(O)CN1C(CO)C(O)C(O[C@H]2O[C@H](CO)[C@@H](O)[C@H](O)[C@H]2O)C1CO", "note": "(stereo partly drawn) [Compound 5, ((3-Hydroxy-2,5-bis(hydroxymethyl)-(3-O-α-D-glucopyranosyl)pyrrolidin-1-yl)methyl)phosphonic acid]", "values": [{"measurement": "fold more potent than previously reported inhibitor 4", "setting": "Sco GlgEI-V279S [1]; 5 versus 4", "result": 2, "unit": "fold"}, {"measurement": "fold more potent than two carbon phosphonate 6", "setting": "Sco GlgEI-V279S [1]; 5 versus 6", "result": 2, "unit": "fold"}]}
{"smiles": "OC[C@H]1N[C@H](CO)[C@@H](O[C@H]2O[C@H](CO)[C@@H](O)[C@H](O)[C@H]2O)[C@@H]1O", "note": "[Compound 4, 2,5-dideoxy-3-O-α-D-glucopyranosyl-2,5-imino-D-mannitol]", "values": [{"measurement": "inhibitory activity against Sco GlgEI-V279S (in words)", "setting": "Sco GlgEI-V279S [2]", "result": "moderate inhibitory activity"}]}
